What all share (type): binding
Test [1] has as its target T1, KRAS G12D (Homo sapiens, UniProt P01116, G12D).
T1 construct: made in house; host or cells: E. coli, e.g. BL21 (DE3)
Put plainly: HTRF assay of K-Ras G12D interaction with SOS1 (PPI-HTRF). To be noted: HTRF, 5 nM KRAS G12D; read-out: PPI-HTRF-5 nM KRAS G12D. Put shortly:
(§1)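 Compounds tested in duplicate from 10 μM to 0.01 μM; 665/620 nm emission ratio used to derive IC50. Proximity FRET between anti-GST-Eu on GST-K-Ras (wildtype or mutant) and anti-6His-XL665 on His-hSOS1 measured after ≥10 min in pH 7.4 HEPES/NaCl/DTT/BSA/Igepal buffer.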
(Time-resolved FRET reads energy transfer from a long-lived donor to a nearby acceptor.)

For test [2], the target named is T2, KRAS G12S (Homo sapiens, UniProt P01116, G12S).
T2 construct: made in house; host or cells: E. coli, e.g. BL21 (DE3)
T2 sequence (P01116 1-188 isoform P01116-2 G12S): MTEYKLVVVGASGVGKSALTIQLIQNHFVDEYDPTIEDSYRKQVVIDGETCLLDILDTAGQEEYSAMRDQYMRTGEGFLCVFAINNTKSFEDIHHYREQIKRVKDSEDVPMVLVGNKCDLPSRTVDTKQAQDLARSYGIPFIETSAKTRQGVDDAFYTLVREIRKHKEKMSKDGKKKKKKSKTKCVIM
Description: HTRF assay of K-Ras G12S interaction with SOS1 (PPI-HTRF). To be noted: 5 nM KRAS G12S, read-out: PPI-HTRF-5 nM KRAS G12S. The essentials:
as §1

The target of test [3] is T3, KRAS WT (Homo sapiens, UniProt P01116).
T3 construct: made in house; host or cells: E. coli, e.g. BL21 (DE3)
T3 sequence (P01116 1-188 isoform P01116-2): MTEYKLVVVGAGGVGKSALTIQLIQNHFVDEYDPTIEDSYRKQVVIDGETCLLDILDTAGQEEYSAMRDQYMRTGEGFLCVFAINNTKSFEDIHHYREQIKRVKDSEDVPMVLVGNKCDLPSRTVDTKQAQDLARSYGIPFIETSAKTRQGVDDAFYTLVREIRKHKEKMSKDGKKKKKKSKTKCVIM
Description: HTRF assay of wildtype K-Ras interaction with SOS1 (PPI-HTRF). To be noted: HTRF, 5 nM KRAS WT; read-out: PPI-HTRF-5 nM KRAS WT. Put shortly: as §1

Structures are written as SMILES. pIC50: −log10 of the molar value. Some results are limits rather than exact numbers.

Experimental findings from US20240116951A1, “HETEROCYCLIC COMPOUNDS AND USES THEREOF” (Kumquat Biosciences Inc., priority 2022, published 2024) are described below.

T1 sequence (P01116 1-188 isoform P01116-2 G12D): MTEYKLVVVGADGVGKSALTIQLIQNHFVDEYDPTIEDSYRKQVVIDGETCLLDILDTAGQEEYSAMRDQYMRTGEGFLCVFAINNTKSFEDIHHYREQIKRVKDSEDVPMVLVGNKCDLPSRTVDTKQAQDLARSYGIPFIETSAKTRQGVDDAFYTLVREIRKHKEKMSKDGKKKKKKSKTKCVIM

Regarding `Nc1nc2c(-c3c(Cl)cc4c(N5CC6(CCN6)C5)nc(OC[C@@]56CCCN5C[C@H](F)C6)nc4c3F)ccc(F)c2s1` [Compound 259, 4-(6-chloro-8-fluoro-2-(((2R,7aS)-2-fluorotetrahydro-1H-pyrrolizin-7a(5H)-yl)methoxy)-4-(1,6-diazaspiro[3.3]heptan-6-yl)quinazolin-7-yl)-7-fluorobenzo[d]thiazol-2-amine], the pIC50 in test [1], in test [2] and in test [3] was greater than 5.30 in each case.
`N#Cc1c(N)sc2c(F)ccc(-c3c(Cl)cc4c(N5CC[C@]6(CCN6)C5)nc(OC[C@@]56CCCN5C[C@H](F)C6)nc4c3F)c12` [Compound 285, 2-amino-4-(6-chloro-8-fluoro-2-(((2R,7aS)-2-fluorotetrahydro-1H-pyrrolizin-7a(5H)-yl)methoxy)-4-((R)-1,6-diazaspiro[3.4]octan-6-yl)quinazolin-7-yl)-7-fluorobenzo[b]thiophene-3-carbonitrile]: the pIC50 in test [1], in test [2] and in test [3] was greater than 5.30 throughout.
Turning to `C[C@H](Oc1nc(N2CCC3(CCN3C(=O)[C@@H]3C[C@H]3C#N)C2)c2cc(Cl)c(-c3ccc(F)c4sc(N)c(C#N)c34)c(F)c2n1)[C@@H]1CCCN1C` (stereo partly drawn) [Compound 206, 2-amino-4-(6-chloro-4-(1-((1R,2R)-2-cyanocyclopropane-1-carbonyl)-1,6-diazaspiro[3.4]octan-6-yl)-8-fluoro-2-((S)-1-((S)-1-methylpyrrolidin-2-yl)ethoxy)quinazolin-7-yl)-7-fluorobenzo[b]thiophene-3-carbonitrile], the pIC50 in test [1], in test [2] and in test [3] was greater than 5.30 throughout.
With `Cc1cc(N)nc(-c2c(Cl)cc3c(N4CCC5(CCN5C(=O)n5cncn5)C4)nc(OC[C@@]45CCCN4C[C@H](F)C5)nc3c2F)c1C(F)(F)F` (stereo partly drawn) [Compound 286, (6-(7-(6-amino-4-methyl-3-(trifluoromethyl)pyridin-2-yl)-6-chloro-8-fluoro-2-(((2R,7aS)-2-fluorotetrahydro-1H-pyrrolizin-7a(5H)-yl)methoxy)quinazolin-4-yl)-1,6-diazaspiro[3.4]octan-1-yl)(1H-1,2,4-triazol-1-yl)methanone], the pIC50 in test [1], in test [2] and in test [3] was greater than 5.30 each time.
Turning to `N#Cc1c(N)sc2c(F)ccc(-c3c(Cl)cc4c(N5CCC6(CCN6C(=O)n6ccnn6)C5)nc(OC[C@@]56CCCN5C[C@H](F)C6)nc4c3F)c12` (stereo partly drawn) [Compound 248, 4-(4-(1-(1H-1,2,3-triazole-1-carbonyl)-1,6-diazaspiro[3.4]octan-6-yl)-6-chloro-8-fluoro-2-(((2R,7aS)-2-fluorotetrahydro-1H-pyrrolizin-7a(5H)-yl)methoxy)quinazolin-7-yl)-2-amino-7-fluorobenzo[b]thiophene-3-carbonitrile], the pIC50 in test [1], in test [2] and in test [3] was greater than 5.30 in each case.
Take `N#Cc1c(N)sc2c(F)ccc(-c3c(Cl)cc4c(N5CC[C@@]6(CCN6C(=O)n6cnc(C(F)F)n6)C5)nc(OC[C@@]56CCCN5C[C@H](F)C6)nc4c3F)c12` (atropisomer, axis not shown; (aS)) [Compound 278, 2-amino-4-((R)-6-chloro-4-((R)-1-(3-(difluoromethyl)-1H-1,2,4-triazole-1-carbonyl)-1,6-diazaspiro[3.4]octan-6-yl)-8-fluoro-2-(((2R,7aS)-2-fluorotetrahydro-1H-pyrrolizin-7a(5H)-yl)methoxy)quinazolin-7-yl)-7-fluorobenzo[b]thiophene-3-carbonitrile]: the pIC50 in test [1], in test [2] and in test [3] was greater than 5.30 throughout.
For `N#Cc1c(N)sc2c(F)ccc(-c3c(Cl)cc4c(N5CCC6(CCN6C(=O)n6nc(C7CC7)nc6Cl)C5)nc(OC[C@@]56CCCN5C[C@H](F)C6)nc4c3F)c12` (stereo partly drawn) [Compound 288, 2-amino-4-(6-chloro-4-(1-(5-chloro-3-cyclopropyl-1H-1,2,4-triazole-1-carbonyl)-1,6-diazaspiro[3.4]octan-6-yl)-8-fluoro-2-(((2R,7aS)-2-fluorotetrahydro-1H-pyrrolizin-7a(5H)-yl)methoxy)quinazolin-7-yl)-7-fluorobenzo[b]thiophene-3-carbonitrile], the pIC50 in test [1], in test [2] and in test [3] was greater than 5.30 each time.
As to `N#Cc1c(N)sc2c(F)ccc(-c3c(Cl)cc4c(N5CC6(CCN6C(=O)n6cncn6)CC5COC(F)F)nc(OC[C@@]56CCCN5C[C@H](F)C6)nc4c3F)c12` (stereo partly drawn) [Compound 326, 2-amino-4-(6-chloro-4-(7-((difluoromethoxy)methyl)-1-(1H-1,2,4-triazole-1-carbonyl)-1,6-diazaspiro[3.4]octan-6-yl)-8-fluoro-2-(((2R,7aS)-2-fluorotetrahydro-1H-pyrrolizin-7a(5H)-yl)methoxy)quinazolin-7-yl)-7-fluorobenzo[b]thiophene-3-carbonitrile], the pIC50 in test [1], in test [2] and in test [3] was greater than 5.30 throughout.
`N#Cc1c(N)sc2c(F)ccc(-c3c(Cl)cc4c(N5CC6(CCN6C(=O)n6cnc(Cl)n6)CC5C(F)F)nc(OC[C@@]56CCCN5C[C@H](F)C6)nc4c3F)c12` (stereo partly drawn) [Compound 323, 2-amino-4-(6-chloro-4-(1-(3-chloro-1H-1,2,4-triazole-1-carbonyl)-7-(difluoromethyl)-1,6-diazaspiro[3.4]octan-6-yl)-8-fluoro-2-(((2R,7aS)-2-fluorotetrahydro-1H-pyrrolizin-7a(5H)-yl)methoxy)quinazolin-7-yl)-7-fluorobenzo[b]thiophene-3-carbonitrile]: the pIC50 is less than 5.30 in test [1], greater than 5.30 in test [2] and less than 5.30 in test [3].
As to `N#Cc1c(N)sc2c(F)ccc(-c3c(Cl)cc4c(N5CC6(CCN6C(=O)n6cncn6)C5)nc(OC[C@@]56CCCN5C[C@H](F)C6)nc4c3F)c12` [Compound 238, 4-(4-(1-(1H-1,2,4-triazole-1-carbonyl)-1,6-diazaspiro[3.3]heptan-6-yl)-6-chloro-8-fluoro-2-(((2R,7aS)-2-fluorotetrahydro-1H-pyrrolizin-7a(5H)-yl)methoxy)quinazolin-7-yl)-2-amino-7-fluorobenzo[b]thiophene-3-carbonitrile], the pIC50 in test [1], in test [2] and in test [3] was greater than 5.30 throughout.
Turning to `Nc1nc2c(-c3c(Cl)cc4c(N5CCC6(CCN6)C5)nc(OC[C@@]56CCCN5C[C@H](F)C6)nc4c3F)ccc(F)c2s1` (stereo partly drawn) [Compound 242, 4-(6-chloro-8-fluoro-2-(((2R,7aS)-2-fluorotetrahydro-1H-pyrrolizin-7a(5H)-yl)methoxy)-4-(1,6-diazaspiro[3.4]octan-6-yl)quinazolin-7-yl)-7-fluorobenzo[d]thiazol-2-amine], the pIC50 in test [1], in test [2] and in test [3] was greater than 5.30 in each case.
As for `N#Cc1c(N)sc2c(F)ccc(-c3c(Cl)cc4c(N5CCC6(CCN6C(=O)n6cnnn6)C5)nc(OC[C@@]56CCCN5C[C@H](F)C6)nc4c3F)c12` (stereo partly drawn) [Compound 293, 4-(4-(1-(1H-tetrazole-1-carbonyl)-1,6-diazaspiro[3.4]octan-6-yl)-6-chloro-8-fluoro-2-(((2R,7aS)-2-fluorotetrahydro-1H-pyrrolizin-7a(5H)-yl)methoxy)quinazolin-7-yl)-2-amino-7-fluorobenzo[b]thiophene-3-carbonitrile], the pIC50 in test [1], in test [2] and in test [3] was greater than 5.30 throughout.
Consider `N#Cc1ncn(C(=O)N2CC[C@@]23CCN(c2nc(OC[C@@]45CCCN4C[C@H](F)C5)nc4c(F)c(-c5ccc(F)c6sc(N)c(C#N)c56)c(Cl)cc24)C3)n1` [Compound 321, 1-((4R)-6-(7-(2-amino-3-cyano-7-fluorobenzo[b]thiophen-4-yl)-6-chloro-8-fluoro-2-(((2R,7aS)-2-fluorotetrahydro-1H-pyrrolizin-7a(5H)-yl)methoxy)quinazolin-4-yl)-1,6-diazaspiro[3.4]octane-1-carbonyl)-1H-1,2,4-triazole-3-carbonitrile], for which the pIC50 in test [1], in test [2] and in test [3] was greater than 5.30 in each case.
On to `N#Cc1c(N)sc2c(F)ccc(-c3c(Cl)cc4c(N5CCC6(C5)NCC6(F)F)nc(OC[C@@]56CCCN5C[C@H](F)C6)nc4c3F)c12` (stereo partly drawn) [Compound 232, 2-amino-4-(6-chloro-4-(3,3-difluoro-1,6-diazaspiro[3.4]octan-6-yl)-8-fluoro-2-(((2R,7aS)-2-fluorotetrahydro-1H-pyrrolizin-7a(5H)-yl)methoxy)quinazolin-7-yl)-7-fluorobenzo[b]thiophene-3-carbonitrile], for which the pIC50 in test [1], in test [2] and in test [3] was greater than 5.30 in each case.
Consider `Cc1cn(C(=O)N2CCC23CCN(c2nc(OC[C@@]45CCCN4C[C@H](F)C5)nc4c(F)c(-c5ccc(F)c6sc(N)c(C#N)c56)c(Cl)cc24)C3)nn1` (stereo partly drawn) [Compound 336, 2-amino-4-(6-chloro-8-fluoro-2-(((2R,7aS)-2-fluorotetrahydro-1H-pyrrolizin-7a(5H)-yl)methoxy)-4-(1-(4-methyl-1H-1,2,3-triazole-1-carbonyl)-1,6-diazaspiro[3.4]octan-6-yl)quinazolin-7-yl)-7-fluorobenzo[b]thiophene-3-carbonitrile], for which the pIC50 in test [1], in test [2] and in test [3] was greater than 5.30 each time.
